Measurements taken from US8835440B2, “Cyclic pyrimidin-4-carboxamides as CCR2 receptor antagonists for treatment of inflammation, asthma and COPD” (Boehringer Ingelheim International GmbH, priority 2008, dated 2014).

Target: T1, CCR2 (Homo sapiens, UniProt P41597)
T1 construct: Membranes were prepared from THP-1 cells; endogenous in cells; host or cells: THP-1 cells (membrane preparation)
T1 sequence (P41597 1-360 isoform P41597-2): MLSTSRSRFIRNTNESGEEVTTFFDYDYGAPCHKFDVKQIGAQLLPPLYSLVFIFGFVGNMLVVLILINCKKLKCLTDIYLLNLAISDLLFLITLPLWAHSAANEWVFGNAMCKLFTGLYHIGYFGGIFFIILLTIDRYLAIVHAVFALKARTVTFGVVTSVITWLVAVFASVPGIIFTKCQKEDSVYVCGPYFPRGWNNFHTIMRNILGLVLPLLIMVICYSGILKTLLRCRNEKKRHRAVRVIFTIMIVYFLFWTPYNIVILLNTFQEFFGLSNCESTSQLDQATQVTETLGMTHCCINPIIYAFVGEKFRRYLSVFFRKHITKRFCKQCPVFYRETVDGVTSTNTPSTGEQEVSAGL
Test: CCR2 receptor membrane binding assay ([125I]MCP-1, THP-1 cell membranes, SPA beads)
Details: for remaining activity at 10 µM: @ 10 μM test compound, THP-1 membranes, read-out: CCR2 % ctrl @ 10 μM; for Ki: dissociation constant hKi, [125I]MCP-1 binding to THP-1 membranes
Procedure, shortened: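 hKi was derived by iterative law-of-mass-action fitting of scintillation counts read at 8 h. Compound (1% DMSO final) competed with ca. 25000 cpm [125I]MCP-1 for THP-1 membranes bound to WGA-PVT beads. Buffer: 25 mM HEPES pH 7.2, 5 mM MgCl2, 0.5 mM CaCl2, 0.2% BSA.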

SMILES	remaining activity at 10 µM [%]	Ki [nM]
CNC(=O)[C@H]1CCN(C2CCN(C(=O)c3ncnc(NCc4ccc(Cl)c(Cl)c4)c3C)CC2)C1 [Example 257]	14	186
Cc1c(NCc2ccc(Cl)c(Cl)c2)ncnc1C(=O)N1CCC(N2CC[C@H](NS(C)(=O)=O)C2)CC1 [Example 258]	4	64
Cc1c(NCc2ccc(Cl)c(Cl)c2)ncnc1C(=O)N1CCC(N2CC[C@@H](NS(C)(=O)=O)C2)CC1 [Example 259]	16	277
CNC(=O)[C@@H]1CCN(C2CCN(C(=O)c3ncnc(NCc4ccc(Cl)c(Cl)c4)c3C)CC2)C1 [Example 260]	20	493
CNC(=O)C1CCN(C2CCN(C(=O)c3ncnc(NCc4ccc(C(C)(C)C)cc4)c3C)CC2)CC1 [Example 261]	8	120
CNS(=O)(=O)C1CCN(C2CCN(C(=O)c3nc(C)nc(NCc4ccc(C(C)(C)C)cc4)c3C)CC2)CC1 [Example 262]	13	224
COC1CN(C(=O)c2ncnc(NCc3ccc(C(C)(C)C)cc3)c2C)CCC1N1CCC(N(C)S(C)(=O)=O)CC1 (stereo not drawn) [Example 263]	27	1970
CCS(=O)(=O)NC1CCN(C2CCN(C(=O)c3ncnc(NCc4ccc(C(C)(C)C)cc4)c3C)CC2)CC1 [Example 264]	3	41
Cc1c(NCc2ccc(C(C)(C)C)cc2)ncnc1C(=O)N1CCC(N2CC[C@@H](C(N)=O)C2)CC1 [Example 265]	23	462
Cc1nc(NCc2ccc(C(C)(C)C)cc2)c(C)c(C(=O)N2CCC(N3CC[C@@H](C(N)=O)C3)CC2)n1 [Example 267]	20	487
Cc1c(Cc2ccc(C(C)(C)C)cc2)ncnc1C(=O)N1CCC(N2CCC(N(C)S(C)(=O)=O)CC2)CC1 [Example 268]	5	119
Cc1c(/C=C/c2ccc(C(C)(C)C)cc2)ncnc1C(=O)N1CCC(N2CCOCC2)CC1 [Example 271]	15	1610
Cc1c(CCc2ccc(C(C)(C)C)cc2)ncnc1C(=O)N1CCC(N2CCC(N(C)S(C)(=O)=O)CC2)CC1 [Example 272]	8	155
Cc1c(C(=O)N2CCC(N3CCC(NS(C)(=O)=O)CC3)CC2)ccnc1NCc1ccc(Cl)c(Cl)c1 [Example 274]	48	4420
Cc1c(C(=O)N2CCC(N3CCC(O)CC3)CC2)ccnc1NCc1ccc(Cl)c(Cl)c1 [Example 275]	19	593
Cc1c(NCc2ccc(C(C)(C)C)cc2)ncnc1C(=O)N1CCC(N(C)C2CCOCC2)CC1 [Example 275a]	0	29
COC1COCCC1N(C)C1CCN(C(=O)c2ncnc(NCc3ccc(C(C)(C)C)cc3)c2C)CC1 (stereo not drawn) [Example 275b]	3	26
Cc1c(NCc2ccc(C(C)(C)C)cc2)ncnc1C(=O)N1CCC(N(C)C2CC(C)OC(C)C2)CC1 (stereo not drawn) [Example 275c]	38	2930
Cc1c(NCc2ccc(C(C)(C)C)cc2)ncnc1C(=O)N1CCC(N(C)C2CCC(F)(F)CC2)CC1 [Example 275d]	10	318
CO[C@@H]1COCC[C@@H]1NC1CCN(C(=O)c2ncnc(NC[C@H]3CCC[C@@H](c4ccc(C)o4)C3)c2C)CC1 [Example 275da]		4
CO[C@@H]1COCC[C@@H]1NC1CCN(C(=O)c2ncnc(NC[C@@H]3CCC[C@H](c4ccc(C)o4)C3)c2C)CC1 [Example 275db]		33
CO[C@@H]1COCC[C@@H]1NC1CCN(C(=O)c2nc(C)nc(NC[C@H]3C[C@@H](c4ccccc4)C3)c2C)CC1 [Example 275dc]		11
CO[C@H]1COCC[C@H]1NC1CCN(C(=O)c2ncnc(NC[C@H]3C[C@@H](c4ccccc4)C3)c2C)CC1 [Example 275dd]		40
CO[C@@H]1COCC[C@@H]1NC1CCN(C(=O)c2nc(C)nc(NC[C@H]3C[C@H](c4ccccc4)C3)c2C)CC1 [Example 275de]		16
CO[C@@H]1COCC[C@@H]1NC1CCN(C(=O)c2ncnc(NC[C@H]3C[C@H](c4ccccc4)C3)c2C)CC1 [Example 275df]		15
CO[C@@H]1COCC[C@@H]1NC1CCN(C(=O)c2ncnc(NC[C@H]3C[C@@H](c4ccccc4)C3)c2C)CC1 [Example 275dg]		12
CO[C@H]1COCC[C@H]1NC1CCN(C(=O)c2ncnc(NC[C@H]3CCC[C@@H](c4ccccc4)C3)c2C)CC1 [Example 275dh]		3

SMILES	remaining activity at 10 µM [%]	Ki [nM]
CO[C@@H]1COCC[C@@H]1NC1CCN(C(=O)c2ncnc(NC[C@H]3CCC[C@@H](c4ccccc4)C3)c2C)CC1 [Example 275di]		1
COC1COCCC1N(C)C1CCN(C(=O)c2ncnc(NC[C@H]3CCC[C@@H](c4ccccc4)C3)c2C)CC1 (stereo partly drawn) [Example 275dj]		4
C=Cc1c(NC[C@H]2CCC[C@@H](c3ccccc3)C2)ncnc1C(=O)N1CCC(N2CCC(N(C)S(C)(=O)=O)CC2)CC1 [Example 275dk]		17
C#Cc1c(NC[C@H]2CCC[C@@H](c3ccccc3)C2)ncnc1C(=O)N1CCC(N2CCC(N(C)S(C)(=O)=O)CC2)CC1 [Example 275dl]		372
CCc1c(NCc2cccc(-c3ccccc3)c2)ncnc1C(=O)N1CCC(N2CCOCC2)CC1 [Example 276]	23	1840
O=C(c1ncnc(NCc2cccc(-c3ccccc3)c2)c1Br)N1CCC(N2CCOCC2)CC1 [Example 277]	34	1380
O=C(c1ncnc(NCc2cccc(-c3ccccc3)c2)c1Br)N1CCC(N2CCC(O)CC2)CC1 [Example 278]	32	1080
Cc1c(NCCc2ccc(Cl)c(Cl)c2)ncnc1C(=O)N1CCC(N2CCOCC2)CC1 [Example 279]	9	192
CCc1c(NCCc2ccc(Cl)c(Cl)c2)ncnc1C(=O)N1CCC(N2CCC(O)CC2)CC1 [Example 280]	32	1440
CCc1c(NCCc2ccc(Cl)c(Cl)c2)ncnc1C(=O)N1CCC(N2CCOCC2)CC1 [Example 281]	24	1010
CCc1c(NCc2cccc(-c3ccccc3)c2)ncnc1C(=O)N1CCC(N2CCC(O)CC2)CC1 [Example 282]	39	1530
Cc1c(NCc2cccc(-c3ccccc3)c2)cccc1C(=O)N1CCC(N2CCC(O)CC2)CC1 [Example 283]	48	4420
Cc1c(NCCc2ccc(Cl)c(Cl)c2)ncnc1C(=O)N1CCC(N2CCN(C(=O)C(C)C)CC2)CC1 [Example 284]	42	1510
Cc1c(NCCc2ccc(Cl)c(Cl)c2)ncnc1C(=O)N1CCC(N2CCN(S(C)(=O)=O)CC2)CC1 [Example 285]	35	1310
Cc1c(NCc2ccc(C(C)(C)C)cc2)ncnc1C(=O)N1CCCN(C2CCCC2)CC1 [Example 286]	19	965
Cc1c(NCc2ccc(C(C)(C)C)cc2)ncnc1C(=O)N1CCCN(C(C)C)CC1 [Example 287]	33	2550
Cc1c(NCc2ccc(C(C)(C)C)cc2)ncnc1C(=O)N1CCCN(C2CCOCC2)CC1 [Example 288]	13	738
Cc1c(C(=O)N2CCC(N3CCC(N(C)S(C)(=O)=O)CC3)CC2)ncnc1-c1ccc(C(C)(C)C)cc1 [Example 289]	34	1670
Cc1c(Oc2ccc(Cl)cc2)ncnc1C(=O)N1CCC(N2CCC(N(C)S(C)(=O)=O)CC2)CC1 [Example 290]	28	1600
Cc1c(Oc2ccc(C(C)(C)C)cc2)ncnc1C(=O)N1CCC(N2CCC(N(C)S(C)(=O)=O)CC2)CC1 [Example 291]	32	3120
Cc1cc(COc2ncnc(C(=O)N3CCC(N4CCC(N(C)S(C)(=O)=O)CC4)CC3)c2C)ccc1Cl [Example 292]	15	136
Cc1c(OCc2ccc(C#N)cc2)ncnc1C(=O)N1CCC(N2CCC(N(C)S(C)(=O)=O)CC2)CC1 [Example 293]	27	717
Cc1ccc(COc2ncnc(C(=O)N3CCC(N4CCC(N(C)S(C)(=O)=O)CC4)CC3)c2C)cc1F [Example 294]	16	230
Cc1c(OCC2CCN(c3ccccc3)C2)ncnc1C(=O)N1CCC(N2CCC(N(C)S(C)(=O)=O)CC2)CC1 (stereo not drawn) [Example 295]	0	140
Cc1c(OCc2ccc(C(C)(C)C)cc2)ncnc1C(=O)N1CCC(N2CCC(N(C)S(C)(=O)=O)CC2)CC1 [Example 296]	3	69
Cc1c(OCc2ccc(C(C)(C)C)cc2)ncnc1C(=O)N1CCC(N2CCOCC2)CC1 [Example 298]	17	599
Cc1c(OCc2ccc(C(C)(C)C)cc2)ncnc1C(=O)N1CCC(N2CCC(NS(C)(=O)=O)CC2)CC1 [Example 299]	6	70
